This note sets out measurements from PubChem BioAssay AID226 (DTP/NCI, 2004).

SMILES strings stand for the structures. Values joined by “and” are separate entries in the source; they are usually repeats but may differ in a detail not shown here. Equal entries are not always repeated. Toxic doses and inconclusive results are not listed.

In the assay the test system is B6C3F1 mice, intracerebral ependymoblastoma, median survival T/C. Kind of assay: NCI In Vivo Anticancer Drug Screen. Data for tumor model Ependymoblastoma (intracerebral) in B6C3F1 mice. Conditions: endpoint: median survival time, higher = longer survival. On the procedure: The antitumor activity of compounds was measured in mice bearing transplantable tumors. Survival or tumor size were measured and the results are expressed as the measurement made in the treated group (T) divided by the measurement made in the vehicle treated control group (C). The tumor model used in this assay is Ependymoblastoma (intracerebral) in B6C3F1 mice

The mark [1] stands for this setting: dose: 64.0 mg/kg/injection, schedule: Q01DX005 (ip), vehicle: Klucel (hydroxypropylcellulose) (HPC).
Where [2] appears, read: dose: 128.0 mg/kg/injection, schedule: Q01DX005 (ip), vehicle: Klucel (hydroxypropylcellulose) (HPC).
Setting [3] is: dose: 256.0 mg/kg/injection, schedule: Q01DX005 (ip), vehicle: Klucel (hydroxypropylcellulose) (HPC).
Setting [4] is: dose: 512.0 mg/kg/injection, schedule: Q01DX005 (ip), vehicle: Klucel (hydroxypropylcellulose) (HPC).
Setting [5] is: dose: 16.0 mg/kg/injection, schedule: Q01DX005 (ip), vehicle: saline with Tween-80.
[6] abbreviates: dose: 32.0 mg/kg/injection, schedule: Q01DX005 (ip), vehicle: saline with Tween-80.
Setting [7] is: dose: 64.0 mg/kg/injection, schedule: Q01DX005 (ip), vehicle: saline with Tween-80.
Setting [8] is: dose: 256.0 mg/kg/injection, schedule: Q01DX005 (ip), vehicle: saline with Tween-80.
Setting [9] is: dose: 8.0 mg/kg/injection, schedule: Q01DX005 (ip), vehicle: saline with Tween-80.
Setting [10] is: dose: 128.0 mg/kg/injection, schedule: Q01DX005 (ip), vehicle: saline with Tween-80.
[11] abbreviates: dose: 0.75 mg/kg/injection, schedule: Q01DX005 (ip), vehicle: saline.
The mark [12] stands for this setting: dose: 1.5 mg/kg/injection, schedule: Q01DX005 (ip), vehicle: saline.

For the molecule `Nc1ncnc2c1ncn2C1OC(CO)C(O)C1O` (stereo not drawn), the T/C was 101 % of control under setting [1]; 92 % of control under setting [2]; 96 % of control under setting [3]; 94 % of control under setting [4]; 98 % of control (dose: 1024.0 mg/kg/injection, schedule: Q01DX005 (ip), vehicle: Klucel (hydroxypropylcellulose) (HPC)).
Turning to `COC(=O)c1cccc(N=NN(C)C)c1`, the T/C is 98 % of control (dose: 8.0 mg/kg/injection, schedule: Q01DX005 (ip), vehicle: saline + alcohol); 108 % of control (dose: 16.0 mg/kg/injection, schedule: Q01DX005 (ip), vehicle: saline + alcohol); 123 % of control (dose: 32.0 mg/kg/injection, schedule: Q01DX005 (ip), vehicle: saline + alcohol); 114 % of control (dose: 100.0 mg/kg/injection, schedule: Q01DX005 (ip), vehicle: saline with Tween-80); 162 % of control (dose: 128.0 mg/kg/injection, schedule: Q01DX005 (ip), vehicle: saline + alcohol).
For the molecule `NC(C/[N+]([O-])=N/O)C(=O)O` (stereo not drawn), the T/C (dose: 7.0 mg/kg/injection, schedule: Q01DX005 (ip), vehicle: saline with Tween-80) was 111 % of control; the T/C (dose: 12.5 mg/kg/injection, schedule: Q01DX009 (ip), vehicle: Klucel (hydroxypropylcellulose) (HPC)) is 110 % of control; the T/C (dose: 14.0 mg/kg/injection, schedule: Q01DX005 (ip), vehicle: saline with Tween-80) is 109 % of control; the T/C under setting [5] was 114 % of control; the T/C (dose: 25.0 mg/kg/injection, schedule: Q01DX009 (ip), vehicle: Klucel (hydroxypropylcellulose) (HPC)) is 119 % of control; the T/C (dose: 28.0 mg/kg/injection, schedule: Q01DX005 (ip), vehicle: saline with Tween-80) was 118 % of control. For the same molecule, the T/C was 118 % of control under setting [6]; 112 % of control (dose: 50.0 mg/kg/injection, schedule: Q01DX009 (ip), vehicle: Klucel (hydroxypropylcellulose) (HPC)); 119 % of control (dose: 56.0 mg/kg/injection, schedule: Q01DX005 (ip), vehicle: saline with Tween-80); 117 % of control under setting [7]; 122 % of control (dose: 112.0 mg/kg/injection, schedule: Q01DX005 (ip), vehicle: saline with Tween-80); 109 % of control under setting [8].
With `CCC(=O)O[C@H]1CC[C@H]2[C@@H]3CC[C@H]4CC(=O)[C@H](C)C[C@]4(C)[C@H]3CC[C@]12C`, the T/C (dose: 8.0 mg/kg/injection, schedule: Q01DX005 (ip), vehicle: Klucel (hydroxypropylcellulose) (HPC)) was 95 % of control and 102 % of control; the T/C under setting [9] is 98 % of control and 108 % of control; the T/C (dose: 16.0 mg/kg/injection, schedule: Q01DX005 (ip), vehicle: Klucel (hydroxypropylcellulose) (HPC)) is 90 % of control and 101 % of control; the T/C under setting [5] is 95 % of control and 96 % of control; the T/C (dose: 32.0 mg/kg/injection, schedule: Q01DX005 (ip), vehicle: Klucel (hydroxypropylcellulose) (HPC)) is 97 % of control and 99 % of control; the T/C under setting [6] is 103 % of control and 107 % of control. The T/C by setting is: under setting [1], 95 % of control and 101 % of control; under setting [7], 98 % of control and 111 % of control; under setting [2], 98 % of control and 87 % of control; under setting [10], 106 % of control and 108 % of control; under setting [3], 93 % of control and 87 % of control; under setting [8], 97 % of control and 113 % of control. The T/C under setting [4] was 87 % of control; the T/C (dose: 512.0 mg/kg/injection, schedule: Q01DX005 (ip), vehicle: saline with Tween-80) was 97 % of control and 101 % of control.
Take `O=C1C(NCCO)=C(N2CC2)C(=O)C(NCCO)=C1N1CC1`: the T/C (dose: 0.06 mg/kg/injection, schedule: Q01DX005 (ip), vehicle: saline) is 112 % of control; the T/C (dose: 0.12 mg/kg/injection, schedule: Q01DX005 (ip), vehicle: saline) was 113 % of control; the T/C (dose: 0.19 mg/kg/injection, schedule: Q01DX005 (ip), vehicle: saline) is 96 % of control; the T/C (dose: 0.25 mg/kg/injection, schedule: Q01DX005 (ip), vehicle: saline) was 91 % of control and 120 % of control; the T/C (dose: 0.38 mg/kg/injection, schedule: Q01DX005 (ip), vehicle: saline) was 100 % of control; the T/C (dose: 0.5 mg/kg/injection, schedule: Q01DX005 (ip), vehicle: saline) is 106 % of control. In addition, the T/C was 117 % of control under setting [11]; 114 % of control (dose: 1.0 mg/kg/injection, schedule: Q01DX005 (ip), vehicle: saline); 120 % of control under setting [12]; 110 % of control (dose: 2.0 mg/kg/injection, schedule: Q01DX005 (ip), vehicle: saline).
For the molecule `O=c1[nH]c(=O)n([C@H]2CCCO2)cc1F`, the T/C was 98 % of control and 100 % of control under setting [9]; 92 % of control (dose: 8.0 mg/kg/injection, schedule: Q01DX005 (ip), vehicle: saline); 93 % of control and 104 % of control under setting [5]; 91 % of control (dose: 16.0 mg/kg/injection, schedule: Q01DX005 (ip), vehicle: saline); 106 % of control and 109 % of control under setting [6]; 92 % of control and 96 % of control (dose: 32.0 mg/kg/injection, schedule: Q01DX005 (ip), vehicle: saline). Also, the T/C by setting is: under setting [7], 104 % of control and 105 % of control; (dose: 64.0 mg/kg/injection, schedule: Q01DX005 (ip), vehicle: saline) 93 % of control and 103 % of control; under setting [10], 100 % of control and 119 % of control; (dose: 128.0 mg/kg/injection, schedule: Q01DX005 (ip), vehicle: saline) 93 % of control and 110 % of control; under setting [8], 124 % of control.
`O=C(NC1=C(N2CC2)C(=O)C(NC(=O)OCCO)=C(N2CC2)C1=O)OCCO`: the T/C is, setting by setting: (dose: 0.18 mg/kg/injection, schedule: Q01DX005 (ip), vehicle: saline) 106 % of control; (dose: 0.39 mg/kg/injection, schedule: Q01DX005 (ip), vehicle: saline) 98 % of control; under setting [11], 102 % of control; under setting [12], 103 % of control and 108 % of control; (dose: 3.0 mg/kg/injection, schedule: Q01DX005 (ip), vehicle: saline) 96 % of control and 115 % of control; (dose: 6.0 mg/kg/injection, schedule: Q01DX005 (ip), vehicle: saline) 110 % of control and 113 % of control.
